The source of these data is BindingDB's records for doi:10.1021/jm00392a002 (1987).

Usually IC50 stands for the midpoint of a concentration-inhibition curve. Read a low IC50 as greater potency.

Non-standard residues stand in square brackets, D forms with d. Residues, ends and D or L forms follow the SMILES beside them. ξ: configuration not given here. Met(O) = CS(=O)CC[C@H](N)C(=O)O; ξA = CC(N)C(=O)O; Sar = CNCC(=O)O

The assay deals with Delta-type opioid receptor (Cavia porcellus). The assay can be described thus: Evaluated for the inhibition of [3H]DADLE binding to Opioid receptor delta 1 of guinea pig brain.

`COC(=O)CN(C)C(=O)[C@H](Cc1ccccc1)NC(=O)[C@H](CC[S+](C)[O-])NC(=O)[C@H](Cc1ccc(O)cc1)N=C(N)N` (stereo partly specified) gave an IC50 of 150 nM.

As for `CN(CC(N)=O)C(=O)[C@H](Cc1ccccc1)NC(=O)[C@H](CC[S+](C)[O-])NC(=O)[C@@H](N)Cc1ccc(O)cc1` (stereo partly specified) (H-Y[Met(O)]F[Sar]-NH2), the IC50 is 440 nM.

Molecule `CN(CC(=O)O)C(=O)[C@H](Cc1ccccc1)NC(=O)[C@H](CC[S+](C)[O-])NC(=O)[C@@H](N)Cc1ccc(O)cc1` (stereo partly specified) (H-Y[Met(O)]F[Sar]-OH) came in with a concentration for half-maximal inhibition (IC50) of 2120 nM.

As for `COC(=O)CN(C)C(=O)[C@H](Cc1ccccc1)NC(=O)[C@H](CC[S+](C)[O-])NC(=O)[C@@H](N)Cc1ccc(O)cc1` (stereo partly specified) (H-Y[Met(O)]F[Sar]-OMe), the IC50 was found to be 510 nM.

Turning to `CC(NC(=O)[C@H](Cc1ccccc1)NC(=O)[C@H](CC[S+](C)[O-])NC(=O)[C@@H](N)Cc1ccc(O)cc1)C(N)=O` (stereo partly specified) (H-Y[Met(O)]F[ξA]-NH2), the 50% inhibitory concentration (IC50) was found to be 900 nM.

Molecule `C[C@@H](NC(=O)[C@@H](N)Cc1ccc(O)cc1)C(=O)N[C@@H](Cc1ccccc1)C(=O)NCC(N)=O` (H-Y[dA]FG-NH2) displayed a concentration for half-maximal inhibition (IC50) of 818 nM.
